# Key:
# Format in all cases: cell-based
# platelets [1] = test: Clot lysis in the presence of platelets (t-PA/Glu-plasminogen, fluorescent fibrinogen release); details: for Clot Lysis in the Presence of Platelets (value relative to control designated as 1): 90 min 37 C, t-PA 2 U/ml, Glu-plasminogen 20 ug/ml; for fibrinolysis of clots, of that of the control: clots made and lysed in the presence of platelets
# Protocol: To assess the effect of piceatannol and calpeptin on the fibrinolytic effect of t-PA and plasminogen in the presence of platelets, we designed a two step procedure by modifying the fibrinolytic assay as described by Fay et al. (Blood, 83, 351-356, 1994). First, we developed a retracted clot in the presence of fluorescence tagged fibrinogen in tubes containing platelets by the addition of thrombin. The residual fluid was taken out and platelets were added to each tube either treated with piceatannol, calpeptin and the vehicle control DMSO respectively. Glu-plasminogen, t-PA were added and the reaction was started by the addition of thrombin. After 90 minutes, the fluid from each tube was taken out and put in separate microfuge tubes followed by centrifugation. The detection of fluorescence in the supernatant was a measure of clot lysis. To form the clot, Oregon green 488 conjugated fibrinogen (fluorescent, from Molecular Probe) at 300 nM final concentration, 1 mM Ca^2+, 2 mM Mg^2+, was added to platelets at 2×10^8/ml concentration in 0.5 ml. The clot retraction was started with the addition of 0.5 unit/ml thrombin. The tubes were kept at 37° C. in dark for 1 hour until the clot retraction was complete. The residual fluid was taken out from each tube. To initiate clot lysis, platelets at 2×10^8/ml concentration were treated with either 40 ug/ml piceatannol, 200 ug/ml calpeptin or vehicle DMSO. In 0.25 ml of each, Glu-plasminogen was added to a final concentration of 20 μg/ml, and t-PA was added to a final concentration of 2 U/ml. The reaction was started with the addition of thrombin at final concentration of 0.5 U/ml. The tubes were kept at 37° C. for 90 minutes. The fluid from each tube was taken in separate microfuge tubes and centrifuged at cold at 14000 rpm for 10 minutes. The supernatants were isolated. Each supernatant was diluted to 5 times and fluorescence in each sample was measured at excitation: 495 nm and emission: 525 nm.
# platelets [2] = test: Platelet aggregation (TRAP-stimulated, recorded together with NO production); details: 200 ug/ml
# Protocol: (§1) FIGS. 2A and 2B show the effect of calpeptin on NO production. Platelets at 2×10^8/ml were pre-incubated with either calpeptin at final concentration 200 ug/ml or vehicle DMSO for 30 minutes in the dark. To a final volume of 0.5 ml, fibrinogen was added to a final concentration of 1 mg/ml, 1 mM Ca^2+, and 2 mM Mg^2+, and GPRP (gly-pro-arg-pro) to a final concentration of 20 μM. The tube was placed in the NO-501 monitor to measure NO production and the platelets are stirred with a magnetic stirrer. TRAP (Thrombin Receptor Agonist Peptide) at a final concentration of 20 μM was added to start the reaction. […] The readings were taken for 300 seconds (5 minutes).
# as §1, with “Platelets” for “FIGS. 2A and 2B show the effect of calpeptin on NO production. Platelets”, “GPRP” for “GPRP (gly-pro-arg-pro)”
# platelets [3] = test: Inhibition of clot retraction (thrombin-induced, platelets with fibrinogen)
# Protocol: Platelets (2×10^8 platelets/ml) were incubated with either piceatannol at a final concentration of 40 μg/ml, calpeptin at a final concentration of 200 μg/ml, or vehicle DMSO for 30 minutes in the dark. To each sample, fibrinogen was added to a final concentration of 300 nM, 1 mM Ca^2+, and 2 mM Mg^2+, 10 minutes prior to the addition of 0.5 unit/ml of thrombin. The clots were incubated for 30 minutes at 37° C. and then transferred to ice before taking photographs. Tubes: 1, vehicle control treated sample without the addition of thrombin; 2, vehicle control treated sample; 3, piceatannol treated sample; 4, calpeptin treated sample.
# To determine the effect of the syk kinase inhibitor piceatannol and the calpain inhibitor calpeptin, the following experiments were carried out. Platelets (2×10^8 platelets/ml) were incubated with either piceatannol at a final concentration of 40 μg/ml, calpeptin at a final concentration of 200 μg/ml, or vehicle DMSO for 30 minutes in the dark. To each sample, fibrinogen was added to a final concentration of 300 nM, 1 mM Ca^2+, and 2 mM Mg^2+, 10 minutes prior to the addition of 0.5 unit/ml of thrombin. The clots were incubated for 30 minutes at 37° C. and then transferred to ice before taking photographs. […]
# platelets [4] = test: Nitric oxide production from platelets (NO-501 monitor, TRAP-stimulated); details: 200 ug/ml, 20 uM TRAP, read for 300 seconds
# Protocol: as §1, with “[…])” for “GPRP (gly-pro-arg-pro)”, “minutes). FIGS. 3A and 3B show the effect of piceatannol on NO production. Platelets at 2×10^8/ml were pre-incubated with either piceatannol at final concentration 2.5 ug/ml or vehicle DMSO for 30 minutes in the dark. To a final volume of 0.5 ml, fibrinogen was added to a final concentration of 1 mg/ml, 1 mM Ca^2+, and 2 mM Mg^2+, and GPRP to a final concentration of 20 μM. The tube was placed in the NO-501 monitor to measure NO production and the platelets are stirred with a magnetic stirrer. TRAP (Thrombin Receptor Agonist Peptide) at a final concentration of 20 μM was added to start the reaction. […] The readings were taken for 300 seconds (5 minutes). […]” for “minutes).”
smiles,measurement,setting,value
Oc1cc(O)cc(/C=C/c2ccc(O)c(O)c2)c1 [piceatannol],Clot Lysis in the Presence of Platelets (value relative to control designated as 1),platelets [1]; 40 ug/ml,6.2
same,"fibrinolysis of clots, of that of the control",platelets [1]; 40 ug/ml,about 600%
CCCC[C@@H](C=O)NC(=O)[C@H](CC(C)C)NC(=O)OCc1ccccc1 [calpeptin],Clot Lysis in the Presence of Platelets (value relative to control designated as 1),platelets [1]; 200 ug/ml,6.2
same,"fibrinolysis of clots, of that of the control",platelets [1]; 200 ug/ml,about 600%
same,effect on platelet aggregation,platelets [2],inhibits both platelet aggregation and clot retraction
same,effect on clot retraction,"platelets [3]; 200 ug/ml, 30 min pre-incubation, 0.5 unit/ml thrombin, 30 min 37 C",inhibited platelet mediated clot retraction
same,NO production,platelets [4],increased and sustained NO production
CC(C)(C)n1nc(-c2ccc(Cl)cc2)c2c(N)ncnc21 [PP2],effect on clot retraction,platelets [3]; 10 uM (data not shown),did not have any effect on clot retraction

# From US8586292B2, “Methods for identifying compounds for treatment of thrombotic condition” (priority 2002, dated 2013)
